In ChEMBL document CHEMBL3885881, “DrugMatrix”:

Species: Rattus norvegicus
Test: DrugMatrix - Regimen: Daily Repeat
Type: toxicity, organism-based, Sprague-Dawley
Design: regimen Daily Repeat, gender Male, age 6-8 weeks
Conditions: in vivo, iv, vehicle 100 % SALINE; for ABSOLUTE BASOPHIL / ABSOLUTE EOSINOPHIL / ABSOLUTE LYMPHOCYTE / ABSOLUTE MONOCYTE / ABSOLUTE SEGMENTED NEUTROPHIL / BASOPHIL / EOSINOPHIL / ERYTHROCYTE COUNT / HEMATOCRIT / HEMOGLOBIN / LEUKOCYTE COUNT / LYMPHOCYTE / MEAN CORPUSCULAR HEMOGLOBIN / MEAN CORPUSCULAR HEMOGLOBIN CONCENTRATION / MEAN CORPUSCULAR VOLUME / MONOCYTE / NEUTROPHIL / NUCLEATED RED BLOOD CELLS / PLATELET COUNT: tissue Blood; for ALANINE AMINOTRANSFERASE / ALBUMIN / ALKALINE PHOSPHATASE / ASPARTATE AMINOTRANSFERASE / BLOOD UREA NITROGEN / CARBON DIOXIDE / CHLORIDE / CHOLESTEROL / CREATINE PHOSPHOKINASE / CREATININE / GLUCOSE / LACTATE DEHYDROGENASE / LIPASE / PHOSPHORUS / POTASSIUM / SODIUM / TOTAL BILIRUBIN / TOTAL PROTEIN / URIC ACID: tissue Plasma
[1] = 0.005 mg/kg, 120 h, dose level Low, time 5 day
[2] = 0.05 mg/kg, 72 h, dose level High, time 3 day
[3] = 0.05 mg/kg, 120 h, dose level High, time 5 day

CC(=O)O[C@H]1C[C@@H]2CC[C@@H]3[C@H](CC[C@@]4(C)[C@H]3C[C@H]([N+]3(C)CCCCC3)[C@@H]4OC(C)=O)[C@@]2(C)C[C@@H]1N1CCCCC1.[Br-] [VECURONIUM BROMIDE]
ABSOLUTE BASOPHIL [1]: 0 CELLS/uL | ABSOLUTE EOSINOPHIL [1]: 82.33 CELLS/uL | ABSOLUTE LYMPHOCYTE [1]: 12022.67 CELLS/uL | ABSOLUTE MONOCYTE [1]: 265.33 CELLS/uL | ABSOLUTE SEGMENTED NEUTROPHIL [1]: 796.33 CELLS/uL | BASOPHIL [1]: 0% | EOSINOPHIL [1]: 0.67% | ERYTHROCYTE COUNT [1]: 5.48 x10E6/uL | HEMATOCRIT [1]: 34.87% | HEMOGLOBIN [1]: 13.83 G/DL | LEUKOCYTE COUNT [1]: 13.17 x10E3/uL | LYMPHOCYTE [1]: 91% | MEAN CORPUSCULAR HEMOGLOBIN [1]: 25.23 pg | MEAN CORPUSCULAR HEMOGLOBIN CONCENTRATION [1]: 39.7 G/DL | MEAN CORPUSCULAR VOLUME [1]: 63.63 fL | MONOCYTE [1]: 2% | NEUTROPHIL [1]: 6.33% | NUCLEATED RED BLOOD CELLS [1]: 0 /100WBC | PLATELET COUNT [1]: 1117 x10E3/uL | ALANINE AMINOTRANSFERASE [1]: 68.67 u/L | ALBUMIN [1]: 4.17 G/DL | ALKALINE PHOSPHATASE [1]: 419 u/L | ASPARTATE AMINOTRANSFERASE [1]: 85 u/L | BLOOD UREA NITROGEN [1]: 19.33 mg/dL | CARBON DIOXIDE [1]: 30 mmol/L | CHLORIDE [1]: 101.33 MEQ/L | CHOLESTEROL [1]: 79 mg/dL | CREATINE PHOSPHOKINASE [1]: 251.67 u/L | CREATININE [1]: 0.25 mg/dL | GLUCOSE [1]: 172 mg/dL | LACTATE DEHYDROGENASE [1]: 116.67 u/L | LIPASE [1]: 10.33 u/L | PHOSPHORUS [1]: 12 mg/dL | POTASSIUM [1]: 5.82 MEQ/L | SODIUM [1]: 144.07 MEQ/L | TOTAL BILIRUBIN [1]: 0.2 mg/dL | TOTAL PROTEIN [1]: 5.9 G/DL | URIC ACID [1]: 1.27 mg/dL | ABSOLUTE BASOPHIL [2]: 0 CELLS/uL | ABSOLUTE EOSINOPHIL [2]: 0 CELLS/uL | ABSOLUTE LYMPHOCYTE [2]: 14697.33 CELLS/uL | ABSOLUTE MONOCYTE [2]: 387 CELLS/uL | ABSOLUTE SEGMENTED NEUTROPHIL [2]: 1049 CELLS/uL | BASOPHIL [2]: 0% | EOSINOPHIL [2]: 0% | ERYTHROCYTE COUNT [2]: 5.35 x10E6/uL | HEMATOCRIT [2]: 33.93% | HEMOGLOBIN [2]: 13.67 G/DL | LEUKOCYTE COUNT [2]: 16.13 x10E3/uL | LYMPHOCYTE [2]: 91.33% | MEAN CORPUSCULAR HEMOGLOBIN [2]: 25.53 pg | MEAN CORPUSCULAR HEMOGLOBIN CONCENTRATION [2]: 40.27 G/DL | MEAN CORPUSCULAR VOLUME [2]: 63.37 fL | MONOCYTE [2]: 2.33% | NEUTROPHIL [2]: 6.33% | NUCLEATED RED BLOOD CELLS [2]: 0 /100WBC | PLATELET COUNT [2]: 1089.33 x10E3/uL | ALANINE AMINOTRANSFERASE [2]: 70.67 u/L | ALBUMIN [2]: 4.17 G/DL | ALKALINE PHOSPHATASE [2]: 375.33 u/L | ASPARTATE AMINOTRANSFERASE [2]: 108 u/L | BLOOD UREA NITROGEN [2]: 15.67 mg/dL | CARBON DIOXIDE [2]: 28.33 mmol/L | CHLORIDE [2]: 103.33 MEQ/L | CHOLESTEROL [2]: 83 mg/dL | CREATINE PHOSPHOKINASE [2]: 435 u/L | CREATININE [2]: 0.25 mg/dL | GLUCOSE [2]: 145.33 mg/dL | LACTATE DEHYDROGENASE [2]: 607.67 u/L | LIPASE [2]: 12 u/L | PHOSPHORUS [2]: 12.1 mg/dL | POTASSIUM [2]: 6.48 MEQ/L | SODIUM [2]: 142.47 MEQ/L | TOTAL BILIRUBIN [2]: 0.17 mg/dL | TOTAL PROTEIN [2]: 5.87 G/DL | URIC ACID [2]: 1.4 mg/dL | ABSOLUTE BASOPHIL [3]: 0 CELLS/uL | ABSOLUTE EOSINOPHIL [3]: 0 CELLS/uL | ABSOLUTE LYMPHOCYTE [3]: 14510.33 CELLS/uL | ABSOLUTE MONOCYTE [3]: 51 CELLS/uL | ABSOLUTE SEGMENTED NEUTROPHIL [3]: 705.33 CELLS/uL | BASOPHIL [3]: 0% | EOSINOPHIL [3]: 0% | ERYTHROCYTE COUNT [3]: 5.55 x10E6/uL | HEMATOCRIT [3]: 33.37% | HEMOGLOBIN [3]: 13.47 G/DL | LEUKOCYTE COUNT [3]: 15.27 x10E3/uL | LYMPHOCYTE [3]: 95% | MEAN CORPUSCULAR HEMOGLOBIN [3]: 24.3 pg | MEAN CORPUSCULAR HEMOGLOBIN CONCENTRATION [3]: 40.33 G/DL | MEAN CORPUSCULAR VOLUME [3]: 60.17 fL | MONOCYTE [3]: 0.33% | NEUTROPHIL [3]: 4.67% | NUCLEATED RED BLOOD CELLS [3]: 0 /100WBC | PLATELET COUNT [3]: 1036.67 x10E3/uL | ALANINE AMINOTRANSFERASE [3]: 50.33 u/L | ALBUMIN [3]: 3.93 G/DL | ALKALINE PHOSPHATASE [3]: 347.67 u/L | ASPARTATE AMINOTRANSFERASE [3]: 100.33 u/L | BLOOD UREA NITROGEN [3]: 18 mg/dL | CARBON DIOXIDE [3]: 26 mmol/L | CHLORIDE [3]: 104 MEQ/L | CHOLESTEROL [3]: 57.67 mg/dL | CREATINE PHOSPHOKINASE [3]: 706.67 u/L | CREATININE [3]: 0.15 mg/dL | GLUCOSE [3]: 145.67 mg/dL | LACTATE DEHYDROGENASE [3]: 811.33 u/L | LIPASE [3]: 9.67 u/L | PHOSPHORUS [3]: 10.97 mg/dL | POTASSIUM [3]: 6.19 MEQ/L | SODIUM [3]: 144.13 MEQ/L | TOTAL BILIRUBIN [3]: 0.2 mg/dL | TOTAL PROTEIN [3]: 5.53 G/DL | URIC ACID [3]: 1.17 mg/dL
